ChEMBL document CHEMBL5055685, “Discovery of the First Potent IDO1/IDO2 Dual Inhibitors: A Promising Strategy for Cancer Immunotherapy” (J Med Chem, 2021)
Active and inactive are the calls of the source. No cut-off for these calls is given here.

Key:
[1] = biological target: Inactive tyrosine-protein kinase PEAK1 (Homo sapiens) (UniProt Q9H792); experiment: Inhibition of PEAK1 (unknown origin) at 1 uM
[2] = biological target: Dual specificity mitogen-activated protein kinase kinase 4 (Homo sapiens) (UniProt P45985); experiment: Inhibition of MKK4 (unknown origin) at 1 uM
[3] = biological target: Vascular endothelial growth factor receptor 2 (Homo sapiens) (UniProt P35968); experiment: Inhibition of KDR (unknown origin) at 1 uM
[4] = biological target: 3-phosphoinositide-dependent protein kinase 1 (Homo sapiens) (UniProt O15530); experiment: Inhibition of PDK1 (unknown origin) at 1 uM
[5] = biological target: G protein-coupled receptor kinase 3 (Homo sapiens) (UniProt P35626); experiment: Inhibition of GRK3 (unknown origin) at 1 uM
[6] = biological target: Serine/threonine-protein kinase 10 (Homo sapiens) (UniProt O94804); experiment: Inhibition of LOK (unknown origin) at 1 uM
[7] = biological target: Dual serine/threonine and tyrosine protein kinase (Homo sapiens) (UniProt Q6XUX3); experiment: Inhibition of RIPK5 (unknown origin) at 1 uM
[8] = biological target: Mitogen-activated protein kinase kinase kinase 2 (Homo sapiens) (UniProt Q9Y2U5); experiment: Inhibition of MEKK2 (unknown origin) at 1 uM
[9] = biological target: CDK6/cyclin D3 (Homo sapiens) (UniProt P30281+Q00534); experiment: Inhibition of CDK6/cyclin-D3 (unknown origin) at 1 uM; assay type: protein-complex assay
[10] = biological target: Tyrosine-protein kinase ZAP-70 (Homo sapiens) (UniProt P43403); experiment: Inhibition of ZAP70 (unknown origin) at 1 uM
[11] = biological target: cGMP-dependent protein kinase 1 (Homo sapiens) (UniProt Q13976); experiment: Inhibition of PKG1alpha (unknown origin) at 1 uM
[12] = biological target: Dual specificity tyrosine-phosphorylation-regulated kinase 4 (Homo sapiens) (UniProt Q9NR20); experiment: Inhibition of DYRK4 (unknown origin) at 1 uM
[13] = biological target: Dual specificity mitogen-activated protein kinase kinase 7 (Homo sapiens) (UniProt O14733); experiment: Inhibition of MKK7 (unknown origin) at 1 uM
[14] = biological target: Mitogen-activated protein kinase kinase kinase kinase 5 (Homo sapiens) (UniProt Q9Y4K4); experiment: Inhibition of KHS (unknown origin) at 1 uM
[15] = biological target: Phosphorylase b kinase gamma catalytic chain, liver/testis isoform (Homo sapiens) (UniProt P15735); experiment: Inhibition of PHKgamma2 (unknown origin) at 1 uM
Mus musculus [16] = experiment: In vivo inhibition of IDO2 in BALB/c mouse xenografted with human HCT-116 cells assessed as suppression of IDO2 expression in tumor by immunohistochemical assay; assay type: functional, organism-based
[17] = biological target: Mast/stem cell growth factor receptor Kit (Homo sapiens) (UniProt P10721); experiment: Inhibition of c-KIT (unknown origin) at 1 uM
[18] = Clearance in dog liver microsomes; assay type: ADME, Canis lupus familiaris, Microsome; conditions: read-out: CLH
[19] = biological target: STE20/SPS1-related proline-alanine-rich protein kinase (Homo sapiens) (UniProt Q9UEW8); experiment: Inhibition of STK39 (unknown origin) at 1 uM
[20] = biological target: Receptor-type tyrosine-protein kinase FLT3 (Homo sapiens) (UniProt P36888); experiment: Inhibition of FLT3 (unknown origin) at 1 uM
[21] = biological target: Myosin light chain kinase 2, skeletal/cardiac muscle (Homo sapiens) (UniProt Q9H1R3); experiment: Inhibition of MLCK2 (unknown origin) at 1 uM
[22] = biological target: G protein-coupled receptor kinase 5 (Homo sapiens) (UniProt P34947); experiment: Inhibition of GRK5 (unknown origin) at 1 uM
[23] = Protein binding in human plasma assessed as fraction unbound by equilibrium dialysis; assay type: ADME, cell-free
[24] = biological target: Myosin light chain kinase (Homo sapiens) (UniProt Q32MK0); experiment: Inhibition of MYLK3 (unknown origin) at 1 uM
[25] = biological target: Calcium/calmodulin-dependent protein kinase type 1G (Homo sapiens) (UniProt Q96NX5); experiment: Inhibition of CAMK1G (unknown origin) at 1 uM
[26] = Protein binding in Sprague-Dawley rat plasma by equilibrium dialysis; assay type: ADME, cell-free; conditions: read-out: PPB (converted)
Mus musculus [27] = experiment: Toxicity in BALB/c mouse implanted with mouse CT26 cells assessed as weight loss at 50 mg/kg, ip bid for 28 days; assay type: organism-based; conditions: in vivo, 672 h, time 28 day
Mus musculus [28] = experiment: Toxicity in BALB/c mouse implanted with mouse CT26 cells assessed as adverse effect at 50 mg/kg, ip bid for 28 days; assay type: organism-based; conditions: in vivo, 672 h, time 28 day
[29] = Apparent permeability across apical to basolateral side in human Caco-2 cells; assay type: ADME, cell-based
[30] = biological target: PAS domain-containing serine/threonine-protein kinase (Homo sapiens) (UniProt Q96RG2); experiment: Inhibition of PASK (unknown origin) at 1 uM
Mus musculus [31] = experiment: In vivo inhibition of TDO in BALB/c mouse xenografted with human HCT-116 cells assessed as suppression of TDO mRNA expression in tumor by quantitative RT-PCR analysis; assay type: functional, organism-based
[32] = biological target: Serine/threonine-protein kinase PLK1 (Homo sapiens) (UniProt P53350); experiment: Inhibition of PLK1 (unknown origin) at 1 uM
[33] = biological target: Calcium/calmodulin-dependent protein kinase type II subunit alpha (Homo sapiens) (UniProt Q9UQM7); experiment: Inhibition of CAMK2A (unknown origin) at 1 uM
[34] = biological target: Serine/threonine-protein kinase B-raf (Homo sapiens) (UniProt P15056); experiment: Inhibition of BRAF (unknown origin) at 1 uM
[35] = biological target: Calcium/calmodulin-dependent protein kinase type 1 (Homo sapiens) (UniProt Q14012); experiment: Inhibition of CAMK1A (unknown origin) at 1 uM
[36] = biological target: Glycogen synthase kinase-3 beta (Homo sapiens) (UniProt P49841); experiment: Inhibition of GSK3B (unknown origin) at 1 uM
[37] = biological target: CDK9/Cyclin-T2 (Homo sapiens) (UniProt P50750+O60583); experiment: Inhibition of CDK9/cyclin-T2 (unknown origin) at 1 uM; assay type: protein-complex assay
[38] = biological target: Phosphorylase b kinase gamma catalytic chain, skeletal muscle/heart isoform (Homo sapiens) (UniProt Q16816); experiment: Inhibition of PHKgamma1 (unknown origin) at 1 uM
[39] = biological target: Serine/threonine-protein kinase SIK2 (Homo sapiens) (UniProt Q9H0K1); experiment: Inhibition of SIK2 (unknown origin) at 1 uM
[40] = biological target: Calcium/calmodulin-dependent protein kinase kinase 1 (Homo sapiens) (UniProt Q8N5S9); experiment: Inhibition of CAMKK1 (unknown origin) at 1 uM
[41] = biological target: Mitogen-activated protein kinase kinase kinase 7 (Homo sapiens) (UniProt O43318); experiment: Inhibition of TAK1 (unknown origin) at 1 uM
[42] = biological target: Mitogen-activated protein kinase 7 (Homo sapiens) (UniProt Q13164); experiment: Inhibition of ERK5 (unknown origin) at 1 uM
[43] = biological target: Cytoplasmic tyrosine-protein kinase BMX (Homo sapiens) (UniProt P51813); experiment: Inhibition of BMX (unknown origin) at 1 uM
[44] = biological target: Serine/threonine-protein kinase VRK2 (Homo sapiens) (UniProt Q86Y07); experiment: Inhibition of VRK2 (unknown origin) at 1 uM
Serine/threonine-protein kinase VRK2 (Homo sapiens), sequence (Q86Y07 whole entry): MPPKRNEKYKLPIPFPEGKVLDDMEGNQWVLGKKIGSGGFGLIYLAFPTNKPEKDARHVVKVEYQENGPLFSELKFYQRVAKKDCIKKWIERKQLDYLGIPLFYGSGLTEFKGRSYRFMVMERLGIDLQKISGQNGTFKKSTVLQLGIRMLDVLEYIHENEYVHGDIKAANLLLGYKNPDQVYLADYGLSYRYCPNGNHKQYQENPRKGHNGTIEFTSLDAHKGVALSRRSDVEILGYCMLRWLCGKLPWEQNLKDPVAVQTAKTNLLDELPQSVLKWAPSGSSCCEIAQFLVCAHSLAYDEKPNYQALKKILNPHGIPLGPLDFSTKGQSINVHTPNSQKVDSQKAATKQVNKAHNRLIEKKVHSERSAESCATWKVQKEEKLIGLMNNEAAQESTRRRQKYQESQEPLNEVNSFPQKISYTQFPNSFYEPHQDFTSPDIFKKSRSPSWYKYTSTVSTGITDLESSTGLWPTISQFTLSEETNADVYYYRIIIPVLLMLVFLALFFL

Mast/stem cell growth factor receptor Kit (Homo sapiens), sequence (P10721 whole entry): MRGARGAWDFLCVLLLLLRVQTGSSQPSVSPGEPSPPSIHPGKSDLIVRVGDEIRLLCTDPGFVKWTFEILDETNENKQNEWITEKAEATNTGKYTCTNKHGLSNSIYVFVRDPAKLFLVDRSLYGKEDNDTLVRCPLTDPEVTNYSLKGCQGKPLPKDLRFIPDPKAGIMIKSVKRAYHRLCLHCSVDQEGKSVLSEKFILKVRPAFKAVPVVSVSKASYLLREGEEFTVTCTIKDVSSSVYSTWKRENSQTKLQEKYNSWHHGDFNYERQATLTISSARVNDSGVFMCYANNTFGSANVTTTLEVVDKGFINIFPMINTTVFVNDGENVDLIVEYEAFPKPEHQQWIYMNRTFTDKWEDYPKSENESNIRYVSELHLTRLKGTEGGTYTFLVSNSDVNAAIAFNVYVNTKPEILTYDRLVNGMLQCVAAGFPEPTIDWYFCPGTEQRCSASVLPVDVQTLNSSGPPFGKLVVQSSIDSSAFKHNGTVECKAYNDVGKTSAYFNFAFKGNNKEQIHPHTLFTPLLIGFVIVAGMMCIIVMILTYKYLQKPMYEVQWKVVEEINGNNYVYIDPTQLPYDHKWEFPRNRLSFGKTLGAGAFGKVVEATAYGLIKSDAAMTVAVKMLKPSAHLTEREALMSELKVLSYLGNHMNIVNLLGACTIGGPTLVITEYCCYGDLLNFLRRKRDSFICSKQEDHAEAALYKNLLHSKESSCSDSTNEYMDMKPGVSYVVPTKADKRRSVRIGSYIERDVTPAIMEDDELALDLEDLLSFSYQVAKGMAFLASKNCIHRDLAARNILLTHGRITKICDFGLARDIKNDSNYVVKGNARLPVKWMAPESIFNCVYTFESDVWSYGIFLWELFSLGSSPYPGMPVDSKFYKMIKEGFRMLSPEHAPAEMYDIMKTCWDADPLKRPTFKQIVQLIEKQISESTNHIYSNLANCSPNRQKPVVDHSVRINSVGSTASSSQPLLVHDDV
Cytoplasmic tyrosine-protein kinase BMX (Homo sapiens), sequence (P51813 whole entry): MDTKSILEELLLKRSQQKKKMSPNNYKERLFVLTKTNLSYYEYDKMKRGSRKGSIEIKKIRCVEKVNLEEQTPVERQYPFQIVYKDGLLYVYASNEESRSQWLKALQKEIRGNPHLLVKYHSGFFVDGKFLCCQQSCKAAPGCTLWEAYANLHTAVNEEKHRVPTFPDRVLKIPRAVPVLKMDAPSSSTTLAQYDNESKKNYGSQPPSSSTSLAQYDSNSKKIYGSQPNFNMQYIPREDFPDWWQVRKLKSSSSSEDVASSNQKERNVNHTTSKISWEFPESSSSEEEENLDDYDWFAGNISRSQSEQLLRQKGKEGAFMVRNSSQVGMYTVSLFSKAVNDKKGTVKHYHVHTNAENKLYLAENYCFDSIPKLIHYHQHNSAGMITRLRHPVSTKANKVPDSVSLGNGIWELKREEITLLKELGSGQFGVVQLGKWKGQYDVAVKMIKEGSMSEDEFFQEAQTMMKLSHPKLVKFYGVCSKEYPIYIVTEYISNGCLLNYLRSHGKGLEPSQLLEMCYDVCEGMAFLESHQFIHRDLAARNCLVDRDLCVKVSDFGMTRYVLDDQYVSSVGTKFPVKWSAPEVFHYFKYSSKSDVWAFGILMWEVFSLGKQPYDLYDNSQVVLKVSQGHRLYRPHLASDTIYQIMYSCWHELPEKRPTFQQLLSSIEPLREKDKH
3-phosphoinositide-dependent protein kinase 1 (Homo sapiens), sequence (O15530 whole entry, looked up): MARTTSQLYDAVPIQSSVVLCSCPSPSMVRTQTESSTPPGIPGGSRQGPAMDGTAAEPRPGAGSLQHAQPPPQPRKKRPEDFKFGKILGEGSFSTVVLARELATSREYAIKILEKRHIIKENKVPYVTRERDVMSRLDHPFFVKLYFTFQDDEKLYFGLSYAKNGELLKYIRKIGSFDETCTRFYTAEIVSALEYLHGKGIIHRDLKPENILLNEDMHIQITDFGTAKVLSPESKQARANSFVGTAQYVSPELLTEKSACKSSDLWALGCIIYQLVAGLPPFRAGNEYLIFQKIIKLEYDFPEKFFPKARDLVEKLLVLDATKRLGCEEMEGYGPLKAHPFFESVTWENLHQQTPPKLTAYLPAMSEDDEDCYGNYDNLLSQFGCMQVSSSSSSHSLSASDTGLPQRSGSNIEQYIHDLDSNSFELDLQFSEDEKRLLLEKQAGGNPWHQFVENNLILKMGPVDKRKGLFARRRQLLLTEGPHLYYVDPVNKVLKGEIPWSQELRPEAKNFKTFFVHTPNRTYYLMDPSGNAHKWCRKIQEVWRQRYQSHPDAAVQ
Mitogen-activated protein kinase 7 (Homo sapiens), sequence (Q13164 2-816 limits assumed): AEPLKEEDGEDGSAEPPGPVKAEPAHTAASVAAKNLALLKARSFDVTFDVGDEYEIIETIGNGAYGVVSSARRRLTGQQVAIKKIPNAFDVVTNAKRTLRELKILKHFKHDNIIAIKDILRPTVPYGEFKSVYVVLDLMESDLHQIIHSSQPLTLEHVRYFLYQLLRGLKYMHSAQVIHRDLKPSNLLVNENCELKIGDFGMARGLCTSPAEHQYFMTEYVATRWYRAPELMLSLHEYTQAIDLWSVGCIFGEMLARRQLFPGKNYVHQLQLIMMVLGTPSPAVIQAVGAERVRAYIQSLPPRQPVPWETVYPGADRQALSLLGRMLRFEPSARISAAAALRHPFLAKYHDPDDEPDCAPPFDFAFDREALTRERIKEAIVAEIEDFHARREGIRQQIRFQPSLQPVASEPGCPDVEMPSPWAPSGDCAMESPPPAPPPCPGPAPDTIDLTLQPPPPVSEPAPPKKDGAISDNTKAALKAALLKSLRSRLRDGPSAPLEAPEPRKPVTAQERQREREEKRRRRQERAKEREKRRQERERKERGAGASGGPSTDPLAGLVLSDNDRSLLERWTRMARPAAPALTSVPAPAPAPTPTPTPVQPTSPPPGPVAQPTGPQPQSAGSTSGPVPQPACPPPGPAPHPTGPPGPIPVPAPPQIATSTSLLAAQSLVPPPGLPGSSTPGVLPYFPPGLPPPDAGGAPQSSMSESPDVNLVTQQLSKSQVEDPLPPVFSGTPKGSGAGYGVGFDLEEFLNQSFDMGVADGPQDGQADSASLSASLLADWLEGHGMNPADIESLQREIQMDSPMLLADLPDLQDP
Vascular endothelial growth factor receptor 2 (Homo sapiens), sequence (P35968 whole entry): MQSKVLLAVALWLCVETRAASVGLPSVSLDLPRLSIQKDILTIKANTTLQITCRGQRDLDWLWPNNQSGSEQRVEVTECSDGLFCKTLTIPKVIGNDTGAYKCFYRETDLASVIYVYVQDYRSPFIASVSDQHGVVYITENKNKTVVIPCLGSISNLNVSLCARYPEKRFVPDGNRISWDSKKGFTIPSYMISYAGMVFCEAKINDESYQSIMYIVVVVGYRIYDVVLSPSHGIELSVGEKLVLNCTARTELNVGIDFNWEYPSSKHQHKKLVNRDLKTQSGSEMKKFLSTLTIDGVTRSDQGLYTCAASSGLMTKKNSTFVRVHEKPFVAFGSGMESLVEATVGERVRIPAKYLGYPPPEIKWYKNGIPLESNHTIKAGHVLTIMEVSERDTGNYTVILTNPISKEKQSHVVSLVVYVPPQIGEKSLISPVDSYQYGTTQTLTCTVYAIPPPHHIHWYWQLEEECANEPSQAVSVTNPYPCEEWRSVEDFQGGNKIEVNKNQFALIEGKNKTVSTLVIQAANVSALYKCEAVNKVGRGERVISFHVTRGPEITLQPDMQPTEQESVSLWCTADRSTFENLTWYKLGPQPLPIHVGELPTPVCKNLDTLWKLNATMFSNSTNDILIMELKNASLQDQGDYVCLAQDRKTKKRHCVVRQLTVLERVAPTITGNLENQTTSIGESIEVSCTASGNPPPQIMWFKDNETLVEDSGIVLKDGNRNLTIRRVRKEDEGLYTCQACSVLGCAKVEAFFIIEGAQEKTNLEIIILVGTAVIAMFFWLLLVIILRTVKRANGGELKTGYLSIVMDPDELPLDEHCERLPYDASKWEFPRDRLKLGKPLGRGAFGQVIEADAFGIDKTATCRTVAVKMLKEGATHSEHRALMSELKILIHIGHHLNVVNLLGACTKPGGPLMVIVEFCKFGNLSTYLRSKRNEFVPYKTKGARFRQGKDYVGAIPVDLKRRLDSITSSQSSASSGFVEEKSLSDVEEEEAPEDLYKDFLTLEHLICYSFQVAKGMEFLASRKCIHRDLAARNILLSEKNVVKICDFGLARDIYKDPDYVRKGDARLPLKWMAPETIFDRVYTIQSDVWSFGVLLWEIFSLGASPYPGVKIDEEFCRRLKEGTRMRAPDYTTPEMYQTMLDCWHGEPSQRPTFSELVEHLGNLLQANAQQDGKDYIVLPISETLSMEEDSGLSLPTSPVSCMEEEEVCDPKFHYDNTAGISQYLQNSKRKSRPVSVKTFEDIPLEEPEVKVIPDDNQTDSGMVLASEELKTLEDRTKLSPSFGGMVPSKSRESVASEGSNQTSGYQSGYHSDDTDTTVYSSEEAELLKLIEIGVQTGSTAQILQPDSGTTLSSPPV

For `OCCOCc1cn(CCNc2nonc2/C(=N/O)Nc2ccc(F)c(Br)c2)nn1`, the inhibition [1] was “inactive”, the inhibition [2] was “inactive” and the inhibition [3] was “inactive”. The inhibition [4] was “inactive”, the inhibition [5] was “inactive” and the inhibition [6] was “inactive”. The inhibition [7] was “inactive”, the inhibition [8] was “inactive” and the inhibition [9] was “inactive”. For the same compound, the inhibition [10] was “inactive”, the inhibition [11] was “inactive” and the inhibition [12] was “inactive”. For the same compound, the inhibition [13] was “inactive”, the inhibition [14] was “inactive” and the inhibition [15] was “inactive”. For the same compound, the inhibition (Mus musculus [16]) was “Active”, the inhibition [17] was “inactive” and the microsomal CLint [18] was 245 µL/min/mg. The inhibition [19] was “inactive”, the inhibition [20] was “inactive” and the inhibition [21] was “inactive”. For the same compound, the inhibition [22] was “inactive”, the fraction unbound [23] was 0.0411 and the inhibition [24] was “inactive”. The inhibition [25] was “inactive”, the fraction unbound [26] was 0.0672 and the Activity (Mus musculus [27]) was “Non-Toxic”. For the same compound, the Activity (Mus musculus [28]) was “Non-Toxic”, the Papp A→B [29] was 7.2 ×10⁻⁶ cm/s and the inhibition [30] was “inactive”. The inhibition (Mus musculus [31]) was “inactive”, the inhibition [32] was “inactive” and the inhibition [33] was “inactive”. For the same compound, the inhibition [34] was “inactive”, the inhibition [35] was “inactive” and the inhibition [36] was “inactive”. The inhibition [37] was “inactive”, the inhibition [38] was “inactive” and the inhibition [39] was “inactive”. The inhibition [40] was “inactive”, the inhibition [41] was “inactive” and the inhibition [42] was “inactive”. For the same compound, the inhibition [43] was “inactive” and the inhibition [44] was “inactive”.
